The source of these data is patent publication US10981932B2, “Macrocyclic indole derivatives” (Bayer Aktiengesellschaft, priority 2016, dated 2021).

Data set [1] has as its system SUDHL10. The data set can be described thus: Induction of cytotoxicity (CellTiter-Glo, 5 h), SUDHL10.
The target in a further data set is MCL-1 (Homo sapiens, UniProt Q07820). The data set can be described thus: Protein-protein interaction assay MCL-1/Noxa BH3 peptide (MCL-1 assay), TR-FRET. Type of data set: binding. Particulars: MBP-MCL-1 / Noxa BH3-derived peptide, median. The method, boiled down:
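TR-FRET, 665/622 nm emission ratio (excitation 330–350 nm), measured MCL-1/Noxa complex formation. 1 nM MBP-MCL-1, 50 mM Tris/HCl pH 7, 0.1% BGG, 2 mM DTT. Incubation 1 h at 22 °C, then overnight at 4 °C. IC50 by 4-parameter regression, normalized to DMSO (0%) and no-MCL-1 (100%) controls.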

Data set [2] has as its system SUDHL5. The experiment in a line: Induction of cytotoxicity (CellTiter-Glo, 5 h), SUDHL5.
Data set [3] deals with SUDHL5. The experiment in a line: Anti-proliferative effect (CellTiter-Glo, 72 h), SUDHL5. Type of data set: cell-based. As to conditions: SUDHL5 cells, antiproliferation, 72 h incubation, median, read-out: Antiproli SUDHL5 [M] (median). The method in brief: (§1)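 A time zero plate, read with CellTiter-Glo shortly after seeding, served as baseline; compound-treated plates were incubated 72 h at 37 °C and then read identically by luminescence.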

For a further data set, the system named is OPM2. The experiment in a line: Anti-proliferative effect (CellTiter-Glo, 72 h), OPM2. In kind it is cell-based. Particulars: OPM2 cells, median, read-out: IC50 antiproliferation assay OPM2 [M] (median). The method in brief: as §1
Data set [4] deals with SUDHL5. The experiment in a line: Induction of caspase-3/7 activity (Caspase-Glo 3/7), SUDHL5. Type of data set: cell-based. As to conditions: caspase-3/7 induction, SUDHL5 cells, 3 h treatment, median. The method, boiled down: (§2)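 DLBCL cells treated with compounds for 3 h at 37 °C, then caspase-3/7 activity read by Caspase-Glo 3/7 luminescence. Medium-only background subtracted; EC50 fitted with C0 fixed at 1 and top set to the reference compound's maximal induction.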

For data set [5], the system named is SUDHL10. The data set can be described thus: Induction of caspase-3/7 activity (Caspase-Glo 3/7), SUDHL10. In kind it is cell-based. Particulars: caspase-3/7 induction, SUDHL10 cells, 3 h treatment, median. The method in brief:
as §2

In another data set the test system is MV-4-11. The data set can be described thus: Anti-proliferative effect (CellTiter-Glo, 72 h), MV-4-11. As to conditions: MV-4-11 cells, median, read-out: IC50 antiproliferation assay MV-4-11 [M] (median). Type of data set: cell-based. The method, boiled down: as §1
A further data set deals with A2780. The experiment in a line: Anti-proliferative effect (CellTiter-Glo, 72 h), A2780. In kind it is cell-based. As to conditions: A2780 cells, median, read-out: IC50 antiproliferation assay A2780 [M] (median). The method, boiled down: as §1
Data set [6] concerns SUDHL10. The data set can be described thus: Anti-proliferative effect (CellTiter-Glo, 72 h), SUDHL10. In kind it is cell-based. Particulars: SUDHL10 cells, antiproliferation, 72 h incubation, median, read-out: Antiproli SUDHL10 [M] (median). The method, boiled down:
as §1

Where [7] appears, read: read-out: Cytotox SUDHL10 [M] (median), SUDHL10 cells, cytotoxicity induction, CellTiter-Glo, 5 h incubation, median.
Where [8] appears, read: read-out: Cytotox SUDHL5 [M] (median), SUDHL5 cells, cytotoxicity induction, CellTiter-Glo, 5 h incubation, median.
Setting [9] is: Homo sapiens, SU-DHL10, 5 h, read-out: Cytotox SUDHL10 [M] (median), SUDHL10 cells, cytotoxicity induction, CellTiter-Glo, 5 h incubation, median.
[10] abbreviates: Homo sapiens, SU-DHL-5, 5 h, read-out: Cytotox SUDHL5 [M] (median), SUDHL5 cells, cytotoxicity induction, CellTiter-Glo, 5 h incubation, median.

Where a name gives a salt, the structure may show the parent alone. Read-outs that look alike come from different tables or passages of the source.

MCL-1, sequence (Q07820 whole entry): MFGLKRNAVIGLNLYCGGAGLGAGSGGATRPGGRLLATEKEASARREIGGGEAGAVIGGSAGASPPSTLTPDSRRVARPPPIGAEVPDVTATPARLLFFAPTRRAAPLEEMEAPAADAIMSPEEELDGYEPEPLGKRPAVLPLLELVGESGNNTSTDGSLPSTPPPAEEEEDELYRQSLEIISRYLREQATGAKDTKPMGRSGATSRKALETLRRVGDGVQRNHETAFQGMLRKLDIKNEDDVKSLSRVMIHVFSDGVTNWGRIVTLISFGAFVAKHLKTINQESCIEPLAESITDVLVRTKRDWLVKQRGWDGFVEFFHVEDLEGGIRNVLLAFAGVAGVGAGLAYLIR

Take `Cc1c2c(nn1C)CN(C)CCCn1c(C(=O)O)c(CCCOc3cccc4ccccc34)c3cccc-2c31` (single isomer, unassigned; enantiomer 1) [Example 1-34, 7,10,11-trimethyl-1-[3-(naphthalen-1-yloxy)propyl]-4,5,6,7,8,10-hexahydropyrazolo[3′,4′:7,8][1,5]diazecino[9,10,1-hi]indole-2-carboxylic Acid-N-ethylethanamine Salt (Enantiomer 1)]: the IC50 stood at 4.53e-06 M in the data set on SUDHL10 [1] (setting [7]); 0.00671 µM against MCL-1; 3.36e-06 M in the data set with SUDHL5 [2] (setting [8]); 1.31e-05 M with SUDHL5 [3] (Homo sapiens, SU-DHL-5, 72 h); 2.69e-05 M in the data set with OPM2 (Homo sapiens, OPM-2, 72 h); 8.89e-06 M with MV-4-11. The IC50 with A2780 (Homo sapiens, A2780, 72 h) is more than 3.3e-05 M; with SUDHL10 [6] (Homo sapiens, SU-DHL10, 72 h), more than 3.3e-05 M. In addition, the results for the EC50 in the data set on SUDHL5 [4] and in the data set with SUDHL10 [5] were 4.5 µM and 6.15 µM, respectively.

Turning to `CN(C)S(=O)(=O)N1CCN(c2ccc(OCc3nn(C)c4c3-c3cccc5c(CCCOc6cccc7ccccc67)c(C(=O)O)n(c35)CCCCCC4)cc2)CC1` (single isomer, unassigned; enantiomer 1) [Example 1-40, 3-({4-[4-(dimethylsulfamoyl)piperazin-1-yl]phenoxy}methyl)-1-methyl-7-[3-(naphthalen-1-yloxy)propyl]-10,11,12,13,14,15-hexahydro-1H-pyrazolo[4′,3′:4,5]azacycloundecino[3,2,1-hi]indole-8-carboxylic acid-N-ethylethanamine Salt (Enantiomer 1)], the IC50 in the data set with SUDHL10 [1] (setting [7]) was 2.3e-05 M; against MCL-1, 0.0368 µM; in the data set with SUDHL5 [2] (setting [8]), 1.69e-05 M; with SUDHL5 [3] (Homo sapiens, SU-DHL-5, 72 h), 5.8e-06 M; in the data set on OPM2 it was 5.38e-06 M; in the data set with MV-4-11 (Homo sapiens, MV4-11, 72 h), 4.94e-06 M. Also, the IC50 was found to be 3.95e-06 M in the data set on A2780 (Homo sapiens, A2780, 72 h) and 1.93e-06 M in the data set on SUDHL10 [6] (Homo sapiens, SU-DHL10, 72 h). Besides, the results for the EC50 in the data set on SUDHL5 [4] and in the data set on SUDHL10 [5] were 21.6 µM and more than 33 µM, respectively.

For the compound `Cc1nn(C)c2c1-c1cccc3c(CCCOc4cccc5ccccc45)c(C(=O)O)n(c13)CCCN(c1ccc(N3CCOCC3)cc1)C2` (single isomer, unassigned; enantiomer 1) [Example 1-99, 9,11-Dimethyl-7-[4-(morpholin-4-yl)phenyl]-1-[3-(1-naphthyloxy)propyl]-4,5,6,7,8,9-hexahydropyrazolo[3′,4′:7,8][1,5]diazecino[9,10,1-hi]indole-2-carboxylic Acid (Enantiomer 1)], the IC50 with SUDHL10 [1] (setting [9]) turned out to be 1.93e-05 M; on MCL-1, 0.0203 µM; in the data set with SUDHL5 [2] (setting [8]), 1.3e-05 M; with SUDHL5 [3] (Homo sapiens, SU-DHL-5, 72 h), 8.76e-06 M; in the data set on OPM2 (Homo sapiens, OPM-2, 72 h) it was 1.98e-05 M; in the data set on MV-4-11 (Homo sapiens, MV4-11, 72 h) it was 7.19e-06 M. Besides, the IC50 with A2780 (Homo sapiens, A2780, 72 h) is 1.12e-05 M; in the data set with SUDHL10 [6] (Homo sapiens, SU-DHL10, 72 h) it was 4.63e-06 M. The values for the 50% effective concentration (EC50) with SUDHL5 [4] and in the data set with SUDHL10 [5] were 9 µM and 13.5 µM, respectively.

Consider `CCS(=O)(=O)N1CCN(c2ccc(N3CCCn4c(C(=O)O)c(CCCOc5cccc6ccccc56)c5cccc(c54)-c4c(C)nn(C)c4C3)cc2)CC1` (single isomer, unassigned; enantiomer 1) [Example 1-109, 7-{4-[4-(Ethylsulfonyl)piperazin-1-yl]phenyl}-9,11-dimethyl-1-(3-(1-naphthyloxy)propyl-4,5,6,7,8,9-hexahydropyrazolo[3′,4′:7,8][1,5]diazecino[9,10,1-hi]indole-2-carboxylic Acid (Enantiomer 1)], for which the IC50 with SUDHL10 [1] (setting [9]) was 1.48e-05 M; at MCL-1, 0.0185 µM; with SUDHL5 [2] (setting [10]), 8.44e-06 M; in the data set on SUDHL5 [3] (Homo sapiens, SU-DHL-5, 72 h) it was 4.55e-06 M; with OPM2 (Homo sapiens, OPM-2, 72 h), 8.14e-06 M; in the data set on MV-4-11 (Homo sapiens, MV4-11, 72 h), 6.94e-06 M. The IC50 in the data set with A2780 (Homo sapiens, A2780, 72 h) is 8.7e-06 M; in the data set on SUDHL10 [6] (Homo sapiens, SU-DHL10, 72 h), 4.08e-06 M. Moreover, the half-maximal effective concentration (EC50) in the data set on SUDHL5 [4] worked out at 7.09 µM; with SUDHL10 [5] (Homo sapiens, SU-DHL10, 3 h) it was 8.86 µM.

As to `Cc1c2c(nn1C)CN(C)CCCCn1c(C(=O)O)c(CCCOc3cccc4ccccc34)c3cccc-2c31` (single isomer, unassigned; enantiomer 1) [Example 068, 2,3,14-trimethyl-7-[3-(naphthalen-1-yloxy)propyl]-10,11,12,13,14,15-hexahydro-2H-pyrazolo[3′,4′:8,9][1,6]diazacycloundecino[10,11,1-hi]indole-8-carboxylic Acid (Enantiomer 1)], the IC50 with SUDHL10 [1] (setting [7]) was 5.02e-06 M; at MCL-1, 0.00442 µM; in the data set with SUDHL5 [2] (setting [8]) it was 2.25e-06 M; with SUDHL5 [3] it was 2.53e-06 M; in the data set with OPM2 (Homo sapiens, OPM-2, 72 h), 9.82e-06 M; in the data set on MV-4-11 (Homo sapiens, MV4-11, 72 h) it was 1.69e-05 M. Further, the IC50 with A2780 is more than 3.3e-05 M; with A2780 (Homo sapiens, A2780, 72 h), 1.85e-05 M; with SUDHL10 [6] it was 1.87e-06 M. In addition, the figures for the EC50 with SUDHL5 [4] and in the data set with SUDHL10 [5] were 1.63 µM and 11.9 µM, respectively.

In the case of `CC(C)c1c2c(nn1C)CN(C)CCCn1c(C(=O)O)c(CCCOc3cccc4ccccc34)c3cccc-2c31` (single isomer, unassigned; enantiomer 1) [Example 114, 7,10-dimethyl-1-[3-(naphthalen-1-yloxy)propyl]-11-(propan-2-yl)-4,5,6,7,8,10-hexahydropyrazolo[3′,4′:7,8][1,5]diazecino[9,10,1-hi]indole-2-carboxylic acid (enantiomer 1)], the IC50 was determined as 8.59e-06 M in the data set on SUDHL10 [1] (setting [9]); 0.00303 µM at MCL-1; 6.61e-06 M with SUDHL5 [2] (setting [10]); 3.28e-06 M in the data set with SUDHL5 [3] (Homo sapiens, SU-DHL-5, 72 h); 1.1e-05 M in the data set with OPM2 (Homo sapiens, OPM-2, 72 h); 4.54e-06 M with MV-4-11 (Homo sapiens, MV4-11, 72 h). Besides, the IC50 in the data set on A2780 (Homo sapiens, A2780, 72 h) stood at 7.06e-06 M; in the data set with SUDHL10 [6] (Homo sapiens, SU-DHL10, 72 h), 5.31e-06 M. For the same compound, the EC50 was found to be 8.86 µM in the data set on SUDHL5 [4] and 17.7 µM with SUDHL10 [5] (Homo sapiens, SU-DHL10, 3 h).

Turning to `Cn1nc(COc2ccc(N3CCOCC3)cc2)c2c1COCC=CCn1c(C(=O)O)c(CCCOc3cccc4ccccc34)c3cccc-2c31` (single isomer, unassigned; enantiomer 1) [Example 119, (+)-E/Z)-1-methyl-3-{[4-(morpholin-4-yl)phenoxy]methyl}-7-[3-(naphthalen-1-yloxy)propyl]-1,10,13,15-tetrahydropyrazolo[4′,3′:9,10][1,6]oxazacycloundecino[8,7,6-hi]indole-8-carboxylic Acid (Enantiomer 1)], the IC50 in the data set with SUDHL10 [1] (setting [9]) is more than 3.3e-05 M; against MCL-1 it was 0.0213 µM; in the data set with SUDHL5 [2] (setting [10]), 2.85e-05 M; in the data set with SUDHL5 [3] (Homo sapiens, SU-DHL-5, 72 h), 1.35e-05 M; with OPM2 (Homo sapiens, OPM-2, 72 h), 6.62e-06 M; in the data set with MV-4-11 (Homo sapiens, MV4-11, 72 h) it was 8.87e-06 M. The IC50 stood at 1.21e-05 M with A2780 (Homo sapiens, A2780, 72 h) and 2e-05 M in the data set with SUDHL10 [6] (Homo sapiens, SU-DHL10, 72 h). In addition, the concentration giving a half-maximal response (EC50) in the data set with SUDHL5 [4] (Homo sapiens, SU-DHL-5, 3 h) is 19.5 µM; in the data set on SUDHL10 [5] (Homo sapiens, SU-DHL10, 3 h), 22.5 µM.

Turning to `CCN(CC)S(=O)(=O)N1CCN(c2ccc(OCc3nn(C)c4c3-c3cccc5c(CCCOc6cccc7ccccc67)c(C(=O)O)n(c35)CCCCOC4)cc2)CC1` (single isomer, unassigned; enantiomer 2) [Example 1-5, 3-({4-[4-(diethysulfamoyl)piperazin-1-yl]phenoxy}methyl)-1-methyl-7-[3-(naphthalen-1-yloxy)propyl]-1,10,11,12,13,15-hexahydropyrazolo[4′,3′:9,10][1,6]oxazacycloundecino[8,7,6-hi]indole-8-carboxylic Acid (Enantiomer 2)], the IC50 was determined as 4.77e-06 M in the data set with SUDHL10 [1] (setting [7]); 0.00151 µM against MCL-1; 3.2e-06 M in the data set with SUDHL5 [2] (setting [8]); 7.67e-07 M in the data set on SUDHL5 [3]; 1.13e-06 M with OPM2; 7.2e-07 M in the data set on MV-4-11 (Homo sapiens, MV4-11, 72 h). Besides, the values for the IC50 with A2780 and in the data set with SUDHL10 [6] were 6.24e-06 M and 1.02e-06 M, respectively. For the same compound, the concentration for a half-maximal effect (EC50) in the data set on SUDHL5 [4] amounted to 2.52 µM; with SUDHL10 [5], 2.62 µM.
